Assay results taken from patent US6476017B2, “Compounds activating pharmacological effect of retinoids” (Institute of Medicinal Molecular Design, Inc., priority 1995, dated 2002).

System: promyelocytic leukemia cell strain HL-60
Assay: Cell differentiation inducing activity of retinoids on HL-60 in presence/absence of test compound (NBT reduction)
Format: cell-based
Description: The effects of the compounds of the above Examples 1 and 2 on cell differentiation induced by retinoids were studied. As retinoid compounds (i.e., agonists against the all-trans retinoic acid receptor), retinoic acid and Am80 (4-[(5,6,7,8-tetrahydro-5,5,8,8-tetramethyl-2-naphthalenyl)carbamoyl]benzoic acid) were used. Cell differentiation inducing activities of the above retinoids on promyelocytic leukemia cell strain HL-60 were measured in the presence and absence of the compounds of Examples 1 and 2 according to the method described in the Japanese Patent Unexamined Publication (KOKAI) No.(Sho)61-76440/1986. The degrees of the differentiation into granulocytic cell were determined by observing nuclear morphologies and measuring abilities to reduce nitroblue tetrazolium (NBT). This method is well known in the art as a test that enables accurate evaluation of the cell differentiation inducing activity of retinoids. The results are shown in the Table 2 set out below (in the table, NTB positive ratio represents a percent value of differentiated cells based on living cells).
Effect of the compound of Example 10 (HX801) on the cell differentiation inducing activity by a retinoid was examined. Am80 was used as the retinoid compound and the cell differentiation inducing activity of the above retinoid on promyelocytic leukemia cell strain HL-60 was determined in the presence or absence of the compound of HX801 in the same manner as Example 15. The results are shown in the Table 3 set out below (in the table, the symbol “-” indicates no addition).

CC1(C)CCC(C)(C)c2cc(NC(=O)c3ccc(C(=O)O)cc3)ccc21 [Am80, 4-[(5,6,7,8-tetrahydro-5,5,8,8-tetramethyl-2-naphthalenyl)carbamoyl]benzoic acid, reference compound]
NBT positive ratio (Am80 1.0 × 10^−8 M alone, test compound absent (HX600 series)): 55%
NBT positive ratio (Am80 1.0 × 10^−8 M alone, test compound absent (LE135 series)): 55%
NBT positive ratio (Am80 1.1 × 10^−9 M alone, test compound absent (HX600 series)): 44%
NBT positive ratio (Am80 1.1 × 10^−9 M alone, test compound absent (LE135 series)): 35%
NBT positive ratio (Am80 3.3 × 10^−9 M alone, test compound absent (HX600 series)): 53%
NBT positive ratio (Am80 3.3 × 10^−9 M alone, test compound absent (LE135 series)): 51%
NBT positive ratio (Am80 3.7 × 10^−10 M alone, test compound absent (HX600 series)): 15%
NBT positive ratio (Am80 3.7 × 10^−10 M alone, test compound absent (LE135 series)): 21%
NBT positive ratio (Table 3: Am80 1.0 × 10^−9 M alone, no HX801): 48%
NBT positive ratio (Table 3: Am80 1.1 × 10^−10 M alone, no HX801): 5%
NBT positive ratio (Table 3: Am80 1.2 × 10^−11 M alone, no HX801): 0.6%
NBT positive ratio (Table 3: Am80 3.3 × 10^−10 M alone, no HX801): 30%
NBT positive ratio (Table 3: Am80 3.7 × 10^−11 M alone, no HX801): 3%

CN1c2ccccc2N=C(c2ccc(C(=O)O)cc2)c2cc3c(cc21)C(C)(C)CCC3(C)C [HX600, 4-[5H-2,3-(2,5-dimethyl-2,5-hexano)-5-methyldibenzo-[b,e][1,4]diazepine-11-yl]benzoic acid]
NBT positive ratio (Am80 1.0 × 10^−8 M + test compound 1.0 × 10^−6 M (HX600 series)): 95%
NBT positive ratio (Am80 1.0 × 10^−8 M + test compound 1.0 × 10^−7 M): 91%
NBT positive ratio (Am80 1.0 × 10^−8 M + test compound 1.0 × 10^−8 M): 80%
NBT positive ratio (Am80 1.0 × 10^−8 M + test compound 1.0 × 10^−9 M): 69%
NBT positive ratio (Am80 1.1 × 10^−9 M + test compound 1.0 × 10^−6 M (HX600 series)): 93%
NBT positive ratio (Am80 1.1 × 10^−9 M + test compound 1.0 × 10^−7 M): 90%
NBT positive ratio (Am80 1.1 × 10^−9 M + test compound 1.0 × 10^−8 M): 65%
NBT positive ratio (Am80 1.1 × 10^−9 M + test compound 1.0 × 10^−9 M): 48%
NBT positive ratio (Am80 3.3 × 10^−9 M + test compound 1.0 × 10^−6 M (HX600 series)): 93%
NBT positive ratio (Am80 3.3 × 10^−9 M + test compound 1.0 × 10^−7 M): 93%
NBT positive ratio (Am80 3.3 × 10^−9 M + test compound 1.0 × 10^−8 M): 73%
NBT positive ratio (Am80 3.3 × 10^−9 M + test compound 1.0 × 10^−9 M): 64%
NBT positive ratio (Am80 3.7 × 10^−10 M + test compound 1.0 × 10^−6 M (HX600 series)): 67%
NBT positive ratio (Am80 3.7 × 10^−10 M + test compound 1.0 × 10^−7 M): 72%
NBT positive ratio (Am80 3.7 × 10^−10 M + test compound 1.0 × 10^−8 M): 41%
NBT positive ratio (Am80 3.7 × 10^−10 M + test compound 1.0 × 10^−9 M): 21%
NBT positive ratio (Retinoic acid 1.0 × 10^−8 M + test compound 1.0 × 10^−6 M): 91%
NBT positive ratio (Retinoic acid 1.0 × 10^−8 M + test compound 1.1 × 10^−7 M): 91%
NBT positive ratio (Retinoic acid 1.0 × 10^−8 M + test compound 3.3 × 10^−7 M): 91%
NBT positive ratio (Retinoic acid 1.1 × 10^−9 M + test compound 1.0 × 10^−6 M): 69%
NBT positive ratio (Retinoic acid 1.1 × 10^−9 M + test compound 1.1 × 10^−7 M): 68%
NBT positive ratio (Retinoic acid 1.1 × 10^−9 M + test compound 3.3 × 10^−7 M): 76%
NBT positive ratio (Retinoic acid 3.3 × 10^−9 M + test compound 1.0 × 10^−6 M): 90%
NBT positive ratio (Retinoic acid 3.3 × 10^−9 M + test compound 1.1 × 10^−7 M): 86%
NBT positive ratio (Retinoic acid 3.3 × 10^−9 M + test compound 3.3 × 10^−7 M): 90%

CC1(C)CCC(C)(C)c2cc3c(cc21)Cc1ccccc1N=C3c1ccc(C(=O)O)cc1 [HX640, 4-[2,3-(2,5-dimethyl-2,5-hexano)-dibenzo[b,e]azepine-11-yl]benzoic acid]
NBT positive ratio (Am80 1.1 × 10^−10 M + test compound 1.0 × 10^−7 M): 69%
NBT positive ratio (Am80 1.1 × 10^−10 M + test compound 1.0 × 10^−8 M): 24%
NBT positive ratio (Am80 1.1 × 10^−10 M + test compound 1.0 × 10^−9 M): 5%
NBT positive ratio (Am80 1.1 × 10^−10 M + test compound 1.0 × 10^−10 M): 7%
NBT positive ratio (Am80 3.3 × 10^−10 M + test compound 1.0 × 10^−6 M): 85%
NBT positive ratio (Am80 3.3 × 10^−10 M + test compound 1.0 × 10^−7 M): 89%
NBT positive ratio (Am80 3.3 × 10^−10 M + test compound 1.0 × 10^−8 M): 75%
NBT positive ratio (Am80 3.3 × 10^−10 M + test compound 1.0 × 10^−9 M): 46%
NBT positive ratio (Am80 3.3 × 10^−10 M + test compound 1.0 × 10^−10 M): 44%

CN1C(=O)CN=C(c2ccc(C(=O)O)cc2)c2cc3c(cc21)C(C)(C)CCC3(C)C [HX801, 4-[1,3-dihydro-7,8-(2,5-dimethyl-2,5-hexano)-1-methyl-2-oxo-2H-1,4-benzodiazepine-5-yl]benzoic acid]
NBT positive ratio (Table 3: Am80 1.0 × 10^−9 M + HX801 1.0 × 10^−6 M): 77%
NBT positive ratio (Table 3: Am80 1.0 × 10^−9 M + HX801 1.1 × 10^−7 M): 63%
NBT positive ratio (Table 3: Am80 1.0 × 10^−9 M + HX801 3.3 × 10^−7 M): 76%
NBT positive ratio (Table 3: Am80 1.1 × 10^−10 M + HX801 1.0 × 10^−6 M): 48%
NBT positive ratio (Table 3: Am80 1.1 × 10^−10 M + HX801 1.1 × 10^−7 M): 22%
NBT positive ratio (Table 3: Am80 1.1 × 10^−10 M + HX801 3.3 × 10^−7 M): 28%
NBT positive ratio (Table 3: Am80 1.2 × 10^−11 M + HX801 1.0 × 10^−6 M): 2%
NBT positive ratio (Table 3: Am80 1.2 × 10^−11 M + HX801 1.1 × 10^−7 M): 1.4%
NBT positive ratio (Table 3: Am80 1.2 × 10^−11 M + HX801 3.3 × 10^−7 M): 2%
NBT positive ratio (Table 3: Am80 3.3 × 10^−10 M + HX801 1.0 × 10^−6 M): 71%
NBT positive ratio (Table 3: Am80 3.3 × 10^−10 M + HX801 1.1 × 10^−7 M): 49%
NBT positive ratio (Table 3: Am80 3.3 × 10^−10 M + HX801 3.3 × 10^−7 M): 55%
NBT positive ratio (Table 3: Am80 3.7 × 10^−11 M + HX801 1.0 × 10^−6 M): 4.4%
NBT positive ratio (Table 3: Am80 3.7 × 10^−11 M + HX801 1.1 × 10^−7 M): 4%
NBT positive ratio (Table 3: Am80 3.7 × 10^−11 M + HX801 3.3 × 10^−7 M): 2.3%
NBT positive ratio (Table 3: HX801 1.0 × 10^−6 M alone, no Am80): 1.1%
NBT positive ratio (Table 3: HX801 1.1 × 10^−7 M alone, no Am80): 1.1%
NBT positive ratio (Table 3: HX801 3.3 × 10^−7 M alone, no Am80): 0.3%

CN1c2cc3c(cc2N=C(c2ccc(C(=O)O)cc2)c2ccccc21)C(C)(C)CCC3(C)C [LE135, 4-(5H-7,8,9,10-tetrahydro-5,7,7,10,10-pentamethylbenzo[e]naphto[2,3-b][1,4]diazepin-13-yl)benzoic acid, reference compound]
NBT positive ratio (Am80 1.0 × 10^−8 M + test compound 1.0 × 10^−6 M (LE135 series)): 34%
NBT positive ratio (Am80 1.0 × 10^−8 M + test compound 1.1 × 10^−7 M): 62%
NBT positive ratio (Am80 1.0 × 10^−8 M + test compound 3.3 × 10^−7 M): 51%
NBT positive ratio (Am80 1.1 × 10^−9 M + test compound 1.0 × 10^−6 M (LE135 series)): 2%
NBT positive ratio (Am80 1.1 × 10^−9 M + test compound 1.1 × 10^−7 M): 23%
NBT positive ratio (Am80 1.1 × 10^−9 M + test compound 3.3 × 10^−7 M): 5%
NBT positive ratio (Am80 3.3 × 10^−9 M + test compound 1.0 × 10^−6 M (LE135 series)): 14%
NBT positive ratio (Am80 3.3 × 10^−9 M + test compound 1.1 × 10^−7 M): 54%
NBT positive ratio (Am80 3.3 × 10^−9 M + test compound 3.3 × 10^−7 M): 32%
NBT positive ratio (Am80 3.7 × 10^−10 M + test compound 1.0 × 10^−6 M (LE135 series)): 1.3%
NBT positive ratio (Am80 3.7 × 10^−10 M + test compound 1.1 × 10^−7 M): 3%
NBT positive ratio (Am80 3.7 × 10^−10 M + test compound 3.3 × 10^−7 M): 1.2%
cell differentiation inducing activity of Am80 (compound coexisting with Am80): significantly suppressed

CC1=C(/C=C/C(C)=C/C=C/C(C)=C/C(=O)O)C(C)(C)CCC1 [Retinoic acid, retinoic acid, reference compound]
NBT positive ratio (Retinoic acid 1.0 × 10^−8 M alone, test compound absent): 54%
NBT positive ratio (Retinoic acid 1.1 × 10^−9 M alone, test compound absent): 14%
NBT positive ratio (Retinoic acid 3.3 × 10^−9 M alone, test compound absent): 36%
